{"source": "PubChem BioAssay AID504394", "about": "(Southern Research Specialized Biocontainment Screening …, 2011)", "note": "The source made the active and inactive calls. No rule for the calls is given here."}
{"test_system": "host cell cytotoxicity, % cell control, 2% serum", "assay": "host cell cytotoxicity in HIV-1 fusion assay, dose response, cytotoxicity control for HIV-1 antiviral lead project, fusion assay cells, 2% serum, TC50 (AID 504394)"}
{"smiles": "COc1ccc(Cn2c(O)cc3nn(-c4nc5ccccc5s4)c(=O)c-3c2C)cc1", "TC50": "61.8 µM"}
{"smiles": "Cc1c2c(=O)n(-c3nc4ccccc4s3)nc-2cc(O)n1C1CC1", "TC50": "83.9 µM"}
{"smiles": "Cc1c2c(=O)n(-c3nc4ccccc4s3)nc-2cc(O)n1CCC(C)C", "TC50": "68.5 µM"}
{"smiles": "O=C(O)CCCN1C(=O)/C(=C\\c2ccc(-c3cccc(Cl)c3)o2)SC1=S", "TC50": "> 100 µM (inactive)"}
{"smiles": "Cc1c2c(=O)n(-c3nc4ccccc4s3)nc-2cc(O)n1Cc1ccccc1Cl", "TC50": "38.1 µM"}
{"smiles": "Nc1sc2ccccc2[n+]1Cc1ccc(C(=O)O)cc1", "TC50": "> 100 µM (inactive)"}
{"smiles": "CS(=O)(=O)C1=NSC2=NC(=O)/C(=C\\c3cccn3-c3ccc(Br)cc3)C(=N)N21", "TC50": "46.2 µM"}
{"smiles": "CCOC(=O)C1=C(C)N=c2sc(=Cc3ccc(OCC(=O)O)cc3)c(=O)n2C1c1ccc(F)cc1", "note": "(configuration not stated)", "TC50": "> 100 µM (inactive)"}
{"smiles": "O=C(O)CCCN1C(=O)/C(=C/c2ccc(-c3cccc(C(F)(F)F)c3)o2)SC1=S", "TC50": "> 100 µM (inactive)"}
{"smiles": "CCOC(=O)C1=C(C)N=c2sc(=Cc3ccc(OCC(=O)O)cc3)c(=O)n2C1c1cc(OC)c(OC)c(OC)c1", "note": "(configuration not stated)", "TC50": "> 100 µM (inactive)"}
{"smiles": "COc1ccc(CCn2c(O)cc3nn(-c4nc5ccccc5s4)c(=O)c-3c2C)cc1", "TC50": "63.2 µM"}
{"smiles": "O=C(O)CCC(C(=O)O)N1C(=O)/C(=C\\c2ccco2)SC1=S", "note": "(configuration not stated)", "TC50": "> 100 µM (inactive)"}
{"smiles": "CS(=O)(=O)C1=NSC2=NC(=O)/C(=C\\c3cccn3-c3cccc(F)c3)C(=N)N21", "TC50": "> 100 µM (inactive)"}
{"smiles": "COc1cccc(C2C(C(=O)Nc3ccccc3)=C(C)N=c3sc(=Cc4ccc(OCC(=O)O)cc4)c(=O)n32)c1", "note": "(configuration not stated)", "TC50": "> 100 µM (inactive)"}
{"smiles": "Cc1c2c(=O)n(-c3nc4ccccc4s3)nc-2cc(O)n1CCc1ccc(O)cc1", "TC50": "30 µM"}
{"smiles": "COc1cccc(-n2cccc2/C=C2/C(=N)N3C(=NC2=O)SN=C3S(C)(=O)=O)c1", "TC50": "> 100 µM (inactive)"}
{"smiles": "CCOC(=O)C1=C(C)N=c2sc(=Cc3ccc(OCC(=O)O)cc3)c(=O)n2C1c1ccc(OC)cc1OC", "note": "(configuration not stated)", "TC50": "> 100 µM (inactive)"}
{"smiles": "Cc1c2c(=O)n(-c3nc4ccccc4s3)nc-2cc(O)n1Cc1cccnc1", "TC50": "> 100 µM (inactive)"}
{"smiles": "CCOC(=O)C1=C(C)N=c2s/c(=C\\c3ccc(OCC(=O)O)cc3)c(=O)n2C1c1ccc(OC)c(OCC)c1", "note": "(configuration not stated)", "TC50": "78.4 µM"}
{"smiles": "Cc1c2c(=O)n(-c3nc4ccccc4s3)nc-2cc(O)n1Cc1ccncc1", "TC50": "> 100 µM (inactive)"}
{"smiles": "O=C(O)CCCN1C(=O)/C(=C\\c2ccc(-c3ccc(F)cc3)o2)SC1=S", "TC50": "38.1 µM"}
{"smiles": "Cc1ccc(-n2cccc2/C=C2/C(=N)N3C(=NC2=O)SN=C3S(C)(=O)=O)cc1", "TC50": "66.5 µM"}
{"smiles": "Cc1ccc(-c2ccc(/C=C3\\SC(=S)N(CCCC(=O)O)C3=O)o2)cc1", "TC50": "> 100 µM (inactive)"}
{"smiles": "O=C(O)c1ccc([C@@H]2Nc3ccc(S(=O)(=O)Nc4cccc5ccccc45)cc3[C@@H]3C=CC[C@@H]32)cc1", "TC50": "> 100 µM (inactive)"}
{"smiles": "CCOc1ccc(-n2cccc2/C=C2/C(=N)N3C(=NC2=O)SN=C3S(C)(=O)=O)cc1", "TC50": "84.7 µM"}
{"smiles": "CCOC(=O)C1=C(c2ccccc2)N=c2s/c(=C\\c3ccc(OCC(=O)O)cc3)c(=O)n2C1c1cccc(OC)c1", "note": "(configuration not stated)", "TC50": "80.4 µM"}
{"smiles": "O=C(O)CCCN1C(=O)/C(=C/c2ccc(-c3ccc(Cl)c(Cl)c3)o2)SC1=S", "TC50": "12.4 µM"}
{"smiles": "Cc1c2c(=O)n(-c3nc4ccccc4s3)nc-2cc(O)n1Cc1ccc(F)cc1", "TC50": "59.9 µM"}
{"smiles": "O=C(O)c1ccc(C[n+]2c(-c3ccccc3)csc2Nc2ccccc2)cc1", "TC50": "> 100 µM (inactive)"}
{"smiles": "CS(=O)(=O)C1=NSC2=NC(=O)/C(=C\\c3cccn3-c3cccc(C(F)(F)F)c3)C(=N)N21", "TC50": "> 100 µM (inactive)"}
{"smiles": "CCOC(=O)C1=C(C)N=c2sc(=Cc3ccc(OCC(=O)O)cc3)c(=O)n2C1c1ccccc1OC", "note": "(configuration not stated)", "TC50": "> 100 µM (inactive)"}
{"smiles": "O=C(O)c1ccc(C[n+]2c(-c3ccc([N+](=O)[O-])cc3)csc2Nc2ccccc2)cc1", "TC50": "> 100 µM (inactive)"}
{"smiles": "CCOC(=O)C1=C(C)N=c2sc(=Cc3ccc(OCC(=O)O)cc3)c(=O)n2C1c1ccccc1", "note": "(configuration not stated)", "TC50": "> 100 µM (inactive)"}
{"smiles": "COc1ccc(-c2ccc(/C=C3\\SC(=S)N(CCCC(=O)O)C3=O)o2)cc1", "TC50": "68.3 µM"}
{"smiles": "CC1=C(C(=O)OC(C)C)C(c2ccc(Cl)cc2)n2c(s/c(=C\\c3ccc(OCC(=O)O)cc3)c2=O)=N1", "note": "(configuration not stated)", "TC50": "> 100 µM (inactive)"}
{"smiles": "Cc1c2c(=O)n(-c3nc4ccccc4s3)nc-2cc(O)n1CCc1cccs1", "TC50": "> 100 µM (inactive)"}
{"smiles": "CS(=O)(=O)C1=NSC2=NC(=O)/C(=C\\c3cccn3-c3ccc(F)cc3)C(=N)N21", "TC50": "> 100 µM (inactive)"}
